Data on 29 compounds can be found in patent US9493446B2, “Orexin receptor antagonists which are [ortho bi-(hetero-)aryl]-[2-(meta bi-(hetero-)aryl)-pyrrolidin-1-yl]-methanone derivatives” (Actelion Pharmaceuticals Ltd, priority 2012, dated 2016).

In general, IC50 refers to the concentration that inhibits the measured activity by half.

The target in test [1] is orexin-1 (Homo sapiens (Human), UniProt O43613). In words: Intracellular calcium measurement (FLIPR), CHO cells expressing human orexin-1 receptor, 3 nM orexin-A. The class given is cell-based. The following applies: CHO cells expressing human orexin-1 receptor, FLIPR, 3 nM orexin-A; geometric mean if determined several times; read-out: IC50 OX1. Here is the method:
(§1) In Vitro Assay: Intracellular Calcium Measurements:
(§2) Chinese hamster ovary (CHO) cells expressing the human orexin-1 receptor and the human orexin-2 receptor, respectively, are grown in culture medium (Ham F-12 with L-Glutamine) containing 300 μg/mL G418, 100 U/mL penicillin, 100 μg/mL streptomycin and 10% heat inactivated fetal calf serum (FCS). The cells are seeded at 20,000 cells/well into 384-well black clear bottom sterile plates (Greiner). The seeded plates are incubated overnight at 37° C. in 5% CO2.
(§3) Human orexin-A as an agonist is prepared as 1 mM stock solution in MeOH: water (1:1), diluted in HBSS containing 0.1% bovine serum albumin (BSA), NaHCO3: 0.375 g/L and 20 mM HEPES for use in the assay at a final concentration of 3 nM.
(§4) Antagonists are prepared as 10 mM stock solution in DMSO, then diluted in 384-well plates using DMSO followed by a transfer of the dilutions into in HBSS containing 0.1% bovine serum albumin (BSA), NaHCO3: 0.375 g/L and 20 mM HEPES. On the day of the assay, 50 μL of staining buffer (HBSS containing 1% FCS, 20 mM HEPES, NaHCO3: 0.375 g/L, 5 mM probenecid (Sigma) and 3 μM of the fluorescent calcium indicator fluo-4 AM (1 mM stock solution in DMSO, containing 10% pluronic) is added to each well. The 384-well cell-plates are incubated for 50 min at 37° C. in 5% CO2 followed by equilibration at rt for 30 min before measurement.
(§5) Within the Fluorescent Imaging Plate Reader (FLIPR Tetra, Molecular Devices), antagonists are added to the plate in a volume of 10 μL/well, incubated for 120 min and finally 10 μL/well of agonist is added. Fluorescence is measured for each well at 1 second intervals, and the height of each fluorescence peak is compared to the height of the fluorescence peak induced by 3 nM orexin-A with vehicle in place of antagonist. […] Optimized conditions were achieved by adjustment of pipetting speed and cell splitting regime. The calculated IC50 values may fluctuate depending on the daily cellular assay performance. Fluctuations of this kind are known to those skilled in the art.
A general note: Calcium flux is commonly read through the fluorescence of an indicator in the cells.

In test [2] the target is human orexin-2 receptor (Homo sapiens (Human), UniProt O43614). In words: Intracellular calcium measurement (FLIPR), CHO cells expressing human orexin-2 receptor, 3 nM orexin-A. To be noted: CHO cells expressing human orexin-2 receptor, FLIPR, 3 nM orexin-A; geometric mean if determined several times; read-out: IC50 OX2. The test is classed as cell-based. The method, then: as §1, §2, §3, §4, §5

SMILES strings stand for the structures.

Chain of orexin-1 (O43613 whole entry): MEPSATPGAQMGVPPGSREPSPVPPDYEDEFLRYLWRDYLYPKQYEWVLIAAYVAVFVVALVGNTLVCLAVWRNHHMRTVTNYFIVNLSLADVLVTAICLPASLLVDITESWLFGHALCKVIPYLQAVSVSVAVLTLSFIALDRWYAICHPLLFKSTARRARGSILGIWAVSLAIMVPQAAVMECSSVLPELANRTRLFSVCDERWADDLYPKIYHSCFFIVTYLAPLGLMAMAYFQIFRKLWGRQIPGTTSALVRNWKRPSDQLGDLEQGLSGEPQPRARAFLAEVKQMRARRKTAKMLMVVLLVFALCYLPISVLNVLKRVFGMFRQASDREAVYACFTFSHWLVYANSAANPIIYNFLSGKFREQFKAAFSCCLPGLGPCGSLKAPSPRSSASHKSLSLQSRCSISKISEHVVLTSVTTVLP
Chain of human orexin-2 receptor (O43614 whole entry): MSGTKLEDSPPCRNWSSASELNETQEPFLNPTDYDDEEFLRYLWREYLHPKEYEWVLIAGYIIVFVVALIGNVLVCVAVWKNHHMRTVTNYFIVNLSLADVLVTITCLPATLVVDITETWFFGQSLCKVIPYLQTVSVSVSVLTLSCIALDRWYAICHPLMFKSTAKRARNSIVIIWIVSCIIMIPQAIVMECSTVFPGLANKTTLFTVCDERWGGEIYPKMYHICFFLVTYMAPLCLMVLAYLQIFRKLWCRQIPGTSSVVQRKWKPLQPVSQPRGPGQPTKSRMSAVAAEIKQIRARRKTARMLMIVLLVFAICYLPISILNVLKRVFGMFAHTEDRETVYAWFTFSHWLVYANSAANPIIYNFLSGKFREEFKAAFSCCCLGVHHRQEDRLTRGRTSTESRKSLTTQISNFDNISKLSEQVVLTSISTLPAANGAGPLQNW

Regarding `Cc1ccc(-n2nccn2)c(C(=O)N2CCC[C@H]2c2nnc(-c3ccccc3OC(F)(F)F)s2)c1` [Example 458, (5-Methyl-2-[1,2,3]triazol-2-yl-phenyl)-{(S)-2-[5-(2-trifluoromethoxy-phenyl)-[1,3,4]thiadiazol-2-yl]-pyrrolidin-1-yl}-methanone], the IC50 in test [1] stood at 176 nM; in test [2], 112 nM.

`Cc1ccc(-n2nccn2)c(C(=O)N2CCC[C@H]2c2nc(-c3ccccc3)co2)c1` [Example 459, (5-Methyl-2-[1,2,3]triazol-2-yl-phenyl)-[(S)-2-(4-phenyl-oxazol-2-yl)-pyrrolidin-1-yl]-methanone]: the IC50 in test [1] stood at 129 nM; in test [2], 295 nM.

Regarding `Cc1ccc(-n2nccn2)c(C(=O)N2CCC[C@H]2c2nc(-c3ccccc3OC(F)(F)F)co2)c1` [Example 460, (5-Methyl-2-[1,2,3]triazol-2-yl-phenyl)-{(S)-2-[4-(2-trifluoromethoxy-phenyl)-oxazol-2-yl]-pyrrolidin-1-yl}-methanone], the IC50 is 10 nM in test [1] and 16 nM in test [2].

In the case of `Cc1ccc(-n2nccn2)c(C(=O)N2CCC[C@H]2c2ncc(-c3ccccc3)o2)c1` [Example 461, (5-Methyl-2-[1,2,3]triazol-2-yl-phenyl)-[(S)-2-(5-phenyl-oxazol-2-yl)-pyrrolidin-1-yl]-methanone], the values for the IC50 in test [1] and in test [2] were 115 nM and 465 nM, respectively.

Regarding `Cc1ccc(-n2nccn2)c(C(=O)N2CCC[C@H]2c2nnc(-c3ccccc3)[nH]2)c1` [Example 463, (5-Methyl-2-[1,2,3]triazol-2-yl-phenyl)-[(S)-2-(5-phenyl-4H-[1,2,4]triazol-3-yl)-pyrrolidin-1-yl]-methanone], the figures for the IC50 in test [1] and in test [2] were 704 nM and 209 nM, respectively.

On to `COc1ccccc1-c1nnc([C@@H]2CCCN2C(=O)c2cc(C)ccc2-n2nccn2)[nH]1` [Example 464, {(S)-2-[5-(2-Methoxy-phenyl)-4H-[1,2,4]triazol-3-yl]-pyrrolidin-1-yl}-(5-methyl-2-[1,2,3]triazol-2-yl-phenyl)-methanone], for which the figures for the IC50 in test [1] and in test [2] were 49 nM and 124 nM, respectively.

As for `Cc1cc(C)cc(-c2nnc([C@@H]3CCCN3C(=O)c3cc(C)ccc3-n3nccn3)[nH]2)c1` [Example 511, {(S)-2-[5-(3,5-Dimethyl-phenyl)-4H-[1,2,4]triazol-3-yl]-pyrrolidin-1-yl}-(5-methyl-2-[1,2,3]triazol-2-yl-phenyl)-methanone], the IC50 was 642 nM in test [1] and 113 nM in test [2].

As to `COc1ccccc1-c1cnc([C@@H]2CCCN2C(=O)c2cc(C)ccc2-n2nccn2)[nH]1` [Example 516, {(S)-2-[5-(2-Methoxy-phenyl)-1H-imidazol-2-yl]-pyrrolidin-1-yl}-(5-methyl-2-[1,2,3]triazol-2-yl-phenyl)-methanone], the IC50 in test [1] and in test [2] was 18 nM throughout.

On to `Cc1ccc(-n2nccn2)c(C(=O)N2CCC[C@H]2c2cc(-c3ccccc3)n[nH]2)c1` [Example 530, (5-Methyl-2-[1,2,3]triazol-2-yl-phenyl)-[(S)-2-(5-phenyl-2H-pyrazol-3-yl)-pyrrolidin-1-yl]-methanone], for which the IC50 in test [1] worked out at 386 nM; in test [2], 222 nM.

For the compound `Cc1ccc(-n2nccn2)c(C(=O)N2CCC[C@H]2c2ncn(-c3ccccc3)n2)c1` [Example 535, (5-Methyl-2-[1,2,3]triazol-2-yl-phenyl)-[(S)-2-(1-phenyl-1H-[1,2,4]triazol-3-yl)-pyrrolidin-1-yl]-methanone], the IC50 came to 47 nM in test [1] and 363 nM in test [2].

As for `Cc1ccc(-n2nccn2)c(C(=O)N2CCC[C@H]2c2cn(-c3ccccc3)nn2)c1` [Example 536, (5-Methyl-2-[1,2,3]triazol-2-yl-phenyl)-[(S)-2-(1-phenyl-1H-[1,2,3]triazol-4-yl)-pyrrolidin-1-yl]-methanone], the IC50 in test [1] is 3430 nM; in test [2], 2140 nM.

`C[C@@]1(c2nc(-c3ccccc3)no2)CCCN1C(=O)c1ccccc1-n1nccn1` [Example 537, [(S)-2-Methyl-2-(3-phenyl-[1,2,4]oxadiazol-5-yl)-pyrrolidin-1-yl]-(2-[1,2,3]triazol-2-yl-phenyl)-methanone]: the IC50 came out at 3980 nM in test [1] and 2880 nM in test [2].

Take `Cc1ccc(-n2nccn2)c(C(=O)N2CCC[C@@]2(C)c2nc(-c3ccccc3)no2)c1` [Example 540, [(S)-2-Methyl-2-(3-phenyl-[1,2,4]oxadiazol-5-yl)-pyrrolidin-1-yl]-(5-methyl-2-[1,2,3]triazol-2-yl-phenyl)-methanone]: the IC50 in test [1] stood at 211 nM; in test [2] it was 581 nM.

Turning to `Cc1ccc(-n2nccn2)c(C(=O)N2CCC[C@@]2(C)c2nc(-c3cccc(Cl)c3C)no2)c1` [Example 541, {(S)-2-[3-(3-Chloro-2-methyl-phenyl)-[1,2,4]oxadiazol-5-yl]-2-methyl-pyrrolidin-1-yl}-(5-methyl-2-[1,2,3]triazol-2-yl-phenyl)-methanone], the IC50 was 104 nM in test [1] and 114 nM in test [2].

Take `Cc1ccc(-n2nccn2)c(C(=O)N2CCC[C@@]2(C)c2nnc(-c3ccccc3OC(F)(F)F)[nH]2)c1` [Example 542, (5-Methyl-2-[1,2,3]triazol-2-yl-phenyl)-{(S)-2-methyl-2-[5-(2-trifluoromethoxy-phenyl)-4H-[1,2,4]triazol-3-yl]-pyrrolidin-1-yl}-methanone]: the IC50 in test [1] amounted to 33 nM; in test [2], 28 nM.

In the case of `O=C(c1cccs1)N1CCC[C@H]1c1nc(-c2ccccc2)no1` [Ref 1], the IC50 in test [1] is above 8500 nM; in test [2], above 10000 nM.

With `O=C(c1cccs1)N1CCC[C@H]1c1nc(-c2cccc(Cl)c2)no1` [Ref 2], the IC50 in test [1] was 4260 nM; in test [2] it was 7230 nM.

As for `Cc1ccccc1-c1noc([C@@H]2CCCN2C(=O)c2cccs2)n1` [Ref 3], the values for the IC50 in test [1] and in test [2] were 6270 nM and above 10000 nM, respectively.

On to `O=C(c1ccoc1)N1CCC[C@H]1c1nc(-c2ccccc2)no1` [Ref 4], for which the IC50 is above 8500 nM in test [1] and above 10000 nM in test [2].

Regarding `O=C(c1ccoc1)N1CCC[C@H]1c1nc(-c2cccc(Cl)c2)no1` [Ref 5], the IC50 in test [1] is above 8500 nM; in test [2], above 10000 nM.

Take `Cc1ccccc1-c1noc([C@@H]2CCCN2C(=O)c2ccoc2)n1` [Ref 6]: the IC50 in test [1] is above 8500 nM; in test [2], above 10000 nM.

As to `Cc1onc(-c2ccccc2Cl)c1C(=O)N1CCC[C@H]1c1nc(-c2cccc(Cl)c2C)no1` [Ref 7], the IC50 amounted to 529 nM in test [1] and 593 nM in test [2].

For `Cc1onc(-c2ccccc2Cl)c1C(=O)N1CCC[C@H]1c1noc(-c2cccc(Cl)c2C)n1` [Ref 8], the IC50 is above 26200 nM in test [1] and above 21800 nM in test [2].

As for `Cc1onc(-c2ccccc2Cl)c1C(=O)N1CCC[C@H]1c1nnc(-c2cccc(Cl)c2C)o1` [Ref 9], the results for the IC50 in test [1] and in test [2] were 11100 nM and above 21800 nM, respectively.

As for `Cc1onc(-c2ccccc2Cl)c1C(=O)N1CCC[C@H]1c1nc(-c2ccccc2OC(F)(F)F)no1` [Ref 10], the IC50 in test [1] is 782 nM; in test [2] it was 2190 nM.

Consider `Cc1cc(C)cc(-c2noc([C@@H]3CCCN3C(=O)c3cc(C)ccc3-n3nccn3)n2)c1` [compound 11, {(S)-2-[3-(3,5-Dimethyl-phenyl)-[1,2,4]oxadiazol-5-yl]-pyrrolidin-1-yl}-(5-methyl-2-[1,2,3]triazol-2-yl-phenyl)-methanone], for which the values for the IC50 in test [1] and in test [2] were 58 nM and 6 nM, respectively.

`Cc1cc(C)nc(-c2noc([C@@H]3CCCN3C(=O)c3cc(C)ccc3-n3nccn3)n2)c1` [compound 12, {(S)-2-[3-(4,6-Dimethyl-pyridin-2-yl)-[1,2,4]oxadiazol-5-yl]-pyrrolidin-1-yl}-(5-methyl-2-[1,2,3]triazol-2-yl-phenyl)-methanone]: the results for the 50% inhibitory concentration (IC50) in test [1] and in test [2] were 796 nM and 816 nM, respectively.

As for `Cc1ccc(-n2nccn2)c(C(=O)N2CCC[C@H]2c2nc(-c3cccc(C)c3C)no2)c1` [compound 13, {(S)-2-[3-(2,3-Dimethyl-phenyl)-[1,2,4]oxadiazol-5-yl]-pyrrolidin-1-yl}-(5-methyl-2-[1,2,3]triazol-2-yl-phenyl)-methanone], the results for the IC50 in test [1] and in test [2] were 70 nM and 13 nM, respectively.

In the case of `Cc1ccc(-n2nccn2)c(C(=O)N2CCC[C@H]2c2nc(-c3cccc(F)c3)no2)c1` [compound 14, {(S)-2-[3-(3-Fluoro-phenyl)-[1,2,4]oxadiazol-5-yl]-pyrrolidin-1-yl}-(5-methyl-2-[1,2,3]triazol-2-yl-phenyl)-methanone], the IC50 in test [1] was 392 nM; in test [2] it was 295 nM.
